Data from patent US11345708B2, “Substituted imidazo[1,2-a]imidazoles as modulators of metabotropic glutamate receptor 4 activity” (Hoffmann-La Roche Inc., priority 2017, dated 2022).

Biological target: T1, human mGlu4 receptor (Homo sapiens, UniProt Q14833)
T1 construct: expressed in transfected cells; host or cells: HEK-293 (monoclonal, stably transfected)
Experiment: Ca2+ mobilization in vitro assay on recombinant human mGlu4 expressed in HEK293 cells
Format: cell-based
Conditions: HEK-293 cells stably expressing human mGlu4; L-AP4 added at EC20; Fluo-4 fluorescence; read-out: EC50 (uM) mGlu4 PAM
Protocol: Determination of EC50 Values Using a Ca2+ Mobilization In Vitro Assay on Recombinant Human mGlu4 Expressed in HEK293 Cells:
A monoclonal HEK-293 cell line stably transfected with a cDNA encoding for the human mGlu4 receptor was generated; for the work with mGlu4 Positive Allosteric Modulators (PAMs), a cell line with low receptor expression levels and low constitutive receptor activity was selected to allow the differentiation of agonistic versus PAM activity. Cells were cultured according to standard protocols (Freshney, 2000) in Dulbecco's Modified Eagle Medium with high glucose supplemented with 1 mM glutamine, 10% (vol/vol) heat-inactivated bovine calf serum, Penicillin/Streptomycin, 50 μg/ml hygromycin and 15 μg/ml blasticidin (all cell culture reagents and antibiotics from Invitrogen, Basel, Switzerland).
About 24 hrs before an experiment, 5×10^4 cells/well were seeded in poly-D-lysine coated, black/clear-bottomed 96-well plates. The cells were loaded with 2.5 μM Fluo-4 AM in loading buffer (1×HBSS, 20 mM HEPES) for 1 hr at 37° C. and washed five times with loading buffer. The cells were transferred into a Functional Drug Screening System 7000 (Hamamatsu, Paris, France), and 11 half logarithmic serial dilutions of test compound at 37° C. were added and the cells were incubated for 10-30 min. with on-line recording of fluorescence. Following this pre-incubation step, the agonist (2S)-2-amino-4-phosphonobutanoic acid (L-AP4) was added to the cells at a concentration corresponding to EC20 with on-line recording of fluorescence; in order to account for day-to-day variations in the responsiveness of cells, the EC20 of L-AP4 was determined immediately ahead of each experiment by recording of a full dose-response curve of L-AP4.
Responses were measured as peak increase in fluorescence minus basal (i.e. fluorescence without addition of L-AP4), normalized to the maximal stimulatory effect obtained with saturating concentrations of L-AP4. Graphs were plotted with the % maximal stimulatory using XLfit, a curve fitting program that iteratively plots the data using Levenburg Marquardt algorithm. The single site competition analysis equation used was y=A+((B−A)/(1+((x/C)D))), where y is the % maximal stimulatory effect, A is the minimum y, B is the maximum y, C is the EC50, x is the log 10 of the concentration of the competing compound and D is the slope of the curve (the Hill Coefficient). From these curves the EC50 (drug concentration at which 50% of the maximal receptor activation was achieved), the Hill coefficient as well as the maximal response in % of the maximal stimulatory effect obtained with saturating concentrations of L-AP4 were calculated (see Fig. 1).
A depression of the signal observed after addition of the EC20 concentration of L-AP4 was indicative of an inhibitory activity of the test compound.

T1 sequence (Q14833 33-912): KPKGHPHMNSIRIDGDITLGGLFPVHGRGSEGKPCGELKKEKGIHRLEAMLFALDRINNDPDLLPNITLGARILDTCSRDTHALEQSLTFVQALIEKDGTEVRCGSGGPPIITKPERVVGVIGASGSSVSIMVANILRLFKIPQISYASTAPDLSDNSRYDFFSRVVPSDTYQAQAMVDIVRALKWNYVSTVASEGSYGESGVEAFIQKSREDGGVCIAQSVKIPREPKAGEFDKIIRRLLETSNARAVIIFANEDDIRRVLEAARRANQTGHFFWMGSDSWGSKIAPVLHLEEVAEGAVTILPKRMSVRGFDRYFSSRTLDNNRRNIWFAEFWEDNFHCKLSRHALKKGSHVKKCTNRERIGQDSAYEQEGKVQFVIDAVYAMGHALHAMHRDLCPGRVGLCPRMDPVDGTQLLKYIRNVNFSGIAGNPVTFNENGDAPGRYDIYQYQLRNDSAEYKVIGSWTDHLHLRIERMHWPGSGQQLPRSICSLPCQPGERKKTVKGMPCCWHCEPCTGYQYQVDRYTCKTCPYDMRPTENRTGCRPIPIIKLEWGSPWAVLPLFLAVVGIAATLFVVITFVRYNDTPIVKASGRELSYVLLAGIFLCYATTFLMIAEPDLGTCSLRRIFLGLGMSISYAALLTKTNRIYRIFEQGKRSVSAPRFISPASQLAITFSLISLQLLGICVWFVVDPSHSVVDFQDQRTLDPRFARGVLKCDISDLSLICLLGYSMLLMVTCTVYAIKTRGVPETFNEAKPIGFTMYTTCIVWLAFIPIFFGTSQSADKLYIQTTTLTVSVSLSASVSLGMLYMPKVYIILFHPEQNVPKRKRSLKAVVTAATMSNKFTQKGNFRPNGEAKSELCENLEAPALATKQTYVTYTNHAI

| Molecule | EC50 [µM] |
| --- | --- |
| O=C1N(c2c(F)cc(C#Cc3cccnc3)cc2F)c2ncc(-c3cccnc3)n2C12CC2 [Example 39, 1′-(2,6-difluoro-4-(pyridin-3-ylethynyl)phenyl)-5′-(pyridin-3-yl)spiro[cyclopropane-1,3′-imidazo[1,2-a]imidazol]-2′(1′H)-one] | 0.566 |
| O=C(Nc1cc(F)c(N2C(=O)C3(CC3)n3c(-c4ccncn4)cnc32)c(F)c1)c1ccccn1 [Example 13, N-[3,5-difluoro-4-(6′-oxo-3′-pyrimidin-4-yl-spiro[cyclopropane-1,5′-imidazo[1,2-a]imidazole]-7′-yl)phenyl]pyridine-2-carboxamide] | 0.077 |
| Cn1cnc(-c2cnc3n2C2(CC2)C(=O)N3c2c(F)cc(C#Cc3ccccc3)cc2F)c1 [Example 14, 7′-[2,6-difluoro-4-(2-phenylethynyl)phenyl]-3′-(1-methylimidazol-4-yl)spiro[cyclopropane-1,5′-imidazo[1,2-a]imidazole]-6′-one] | 0.12 |
| CS(=O)(=O)c1cnc2n1C1(CC1)C(=O)N2c1c(F)cc(C#Cc2ccccc2)cc1F [Example 53, 3′-[2,6-Difluoro-4-(2-phenylethynyl)phenyl]-6′-methanesulfonyl-2′,3′-dihydrospiro[cyclopropane-1,1′-imidazo[1,2-a][1,3]diazole]-2′-one] | 0.69 |
| Cn1cc(-c2cnc3n2C2(CC2)C(=O)N3c2c(F)cc(C#Cc3ccccc3)cc2F)cn1 [Example 29, 3-[2,6-Difluoro-4-(2-phenylethynyl)phenyl]-6-(1-methyl-1H-pyrazol-4-yl)-2,3-dihydrospiro[[1,3]diazolo[1,2-a]imidazole-1,1′-cyclopropane]-2-one] | 0.139 |
| O=C1N(c2c(F)cc(C#Cc3ccccc3)cc2F)c2ncc(-c3ccncn3)n2C12CC2 [Example 18, 3′-[2,6-Difluoro-4-(2-phenylethynyl)phenyl]-6′-(pyrimidin-4-yl)-2′,3′-dihydrospiro[cyclopropane-1,1′-imidazo-[1,2-a][1,3]diazole]-2′-one] | 0.361 |
| Cn1nccc1-c1cnc2n1C1(CC1)C(=O)N2c1c(F)cc(C#Cc2ccccc2)cc1F [Example 44, 7′-[2,6-difluoro-4-(2-phenylethynyl)phenyl]-3′-(2-methylpyrazol-3-yl)spiro[cyclopropane-1,5′-imidazo[1,2-a]imidazole]-6′-one] | 0.422 |
| O=C1N(c2c(F)cc(-n3cc(C(F)(F)F)cn3)cc2F)c2ncc(-c3ccncn3)n2C12CC2 [Example 23, 7′-[2,6-difluoro-4-[4-(trifluoromethyl)pyrazol-1-yl]phenyl]-3′-pyrimidin-4-yl-spiro[cyclopropane-1,5′-imidazo[1,2-a]imidazole]-6′-one] | 0.755 |
| Cn1cc(-c2cnc3n2C2(CC2)C(=O)N3c2c(F)cc(-c3ccc(C(C)(F)F)cc3)cc2F)cn1 [Example 35, 1′-(4′-(1,1-difluoroethyl)-3,5-difluoro-[1,1′-biphenyl]-4-yl)-5′-(1-methyl-1H-pyrazol-4-yl)spiro[cyclopropane-1,3′-imidazo[1,2-a]imidazol]-2′(1′H)-one] | 0.227 |
| O=C1N(c2c(F)cc(C#Cc3ccccc3)cc2F)c2ncc(-c3cccnc3)n2C12CC2 [Example 33, 3-[2,6-Difluoro-4-(2-phenylethynyl)phenyl]-6-(pyridin-3-yl)-2,3-dihydrospiro[[1,3]diazolo[1,2-a]imidazole-1,1′-cyclopropane]-2-one] | 0.178 |
| CC(O)c1cnc2n1C1(CC1)C(=O)N2c1c(F)cc(-n2cc(C(C)(C)C)cn2)cc1F (stereo not shown) [Example 58, 7′-[4-(4-tert-butylpyrazol-1-yl)-2,6-difluoro-phenyl]-3′-(1-hydroxyethyl)spiro[cyclopropane-1,5′-imidazo[1,2-a]imidazole]-6′-one] | 0.842 |
| O=C1N(c2c(F)cc(C#Cc3ccccc3)cc2F)c2nccn2C12CC2 [Example 1, 3-[2,6-Difluoro-4-(2-phenylethynyl)phenyl]-2,3-dihydrospiro[[1,3]diazolo[1,2-a]imidazole-1,1′-cyclopropane]-2-one] | 0.178 |
| CC1C(=O)N(c2c(F)cc(C#Cc3ccccc3)cc2F)c2nccn21 (single isomer, unassigned; enantiomer 2) [Example 4, 1-(2,6-difluoro-4-(phenylethynyl)phenyl)-3-methyl-1H-imidazo[1,2-a]imidazol-2(3H)-one (enantiomer 2)] | 0.758 |
| Cn1cc(-c2cnc3n2C2(CC2)C(=O)N3c2c(F)cc(C#Cc3cccnc3)cc2F)cn1 [Example 37, 1′-(2,6-difluoro-4-(pyridin-3-ylethynyl)phenyl)-5′-(1-methyl-1H-pyrazol-4-yl)spiro[cyclopropane-1,3′-imidazo[1,2-a]imidazol]-2′(1′H)-one] | 0.229 |
| O=C1N(c2c(F)cc(C#Cc3ccccc3)cc2F)c2ncc(-c3cc[nH]n3)n2C12CC2 [Example 27, 3-[2,6-Difluoro-4-(2-phenylethynyl)phenyl]-6-(1H-pyrazol-3-yl)-2,3-dihydrospiro[[1,3]diazolo[1,2-a]-imidazole-1,1′-cyclopropane]-2-one] | 0.121 |
| O=C1N(c2c(F)cc(C#Cc3cccnc3)cc2F)c2ncc(-c3ccncn3)n2C12CC2 [Example 16, 7′-[2,6-difluoro-4-[2-(3-pyridyl)ethynyl]phenyl]-3′-pyrimidin-4-yl-spiro[cyclopropane-1,5′-imidazo[1,2-a]imidazole]-6′-one] | 0.237 |
| CC1(C)C(=O)N(c2c(F)cc(C#Cc3ccccc3)cc2Cl)c2nccn21 [Example 2, 1-(2-chloro-6-fluoro-4-(phenylethynyl)phenyl)-3,3-dimethyl-1H-imidazo[1,2-a]imidazol-2(3H)-one] | 0.359 |
| Cn1ccc(-c2cnc3n2C2(CC2)C(=O)N3c2c(F)cc(C#Cc3ccccc3)cc2F)n1 [Example 26, 1′-(2,6-difluoro-4-(phenylethynyl)phenyl)-5′-(1-methyl-1H-pyrazol-3-yl)spiro[cyclopropane-1,3′-imidazo[1,2-a]imidazol]-2′(1′H)-one] | 0.104 |
| Cn1ccc(-c2cnc3n2C(C)(C)C(=O)N3c2c(F)cc(C#Cc3ccccc3)cc2Cl)n1 [Example 36, 1-(2-chloro-6-fluoro-4-(phenylethynyl)phenyl)-3,3-dimethyl-5-(1-methyl-1H-pyrazol-3-yl)-1H-imidazo[1,2-a]imidazol-2(3H)-one] | 0.252 |
| O=C1N(c2c(F)cc(C#Cc3ccccc3)cc2F)c2ncc(C3(O)COC3)n2C12CC2 [Example 50, 7′-[2,6-difluoro-4-(2-phenylethynyl)phenyl]-3′-(3-hydroxyoxetan-3-yl)spiro[cyclopropane-1,5′-imidazo[1,2-a]imidazole]-6′-one] | 0.322 |
| 7′-[2,6-difluoro-4-[2-(3-pyridyl)ethynyl]phenyl]-3′-(2-methylpyrazol-3-yl)spiro[cyclopropane-1,5′-imidazo[1,2-a]imidazole]-6′-one [Example 30] | 0.143 |
| O=C(Nc1cc(F)c(N2C(=O)C3(CC3)n3c(-c4cc[nH]n4)cnc32)c(F)c1)c1ccccn1 [Example 43, N-[3,5-difluoro-4-[6′-oxo-3′-(1H-pyrazol-3-yl)spiro[cyclopropane-1,5′-imidazo[1,2-a]imidazole]-7′-yl]phenyl]pyridine-2-carboxamide] | 0.015 |
| O=C1N(c2c(F)cc(C#Cc3cccnc3)cc2F)c2ncc(-c3cc[nH]n3)n2C12CC2 [Example 28, 7′-[2,6-difluoro-4-[2-(3-pyridyl)ethynyl]phenyl]-3′-(1H-pyrazol-3-yl)spiro[cyclopropane-1,5′-imidazo[1,2-a]imidazole]-6′-one] | 0.135 |
| O=C1N(c2c(F)cc(C#Cc3cccnc3)cc2F)c2ncc(-c3ccccn3)n2C12CC2 [Example 17, 7′-[2,6-difluoro-4-[2-(3-pyridyl)ethynyl]phenyl]-3′-(2-pyridyl)spiro[cyclopropane-1,5′-imidazo[1,2-a]imidazole]-6′-one] | 0.283 |
| O=C1N(c2c(F)cc(-n3cc(C(F)(F)F)cn3)cc2F)c2ncc(-c3ccccn3)n2C12CC2 [Example 21, 7′-[2,6-difluoro-4-[4-(trifluoromethyl)pyrazol-1-yl]phenyl]-3′-(2-pyridyl)spiro[cyclopropane-1,5′-imidazo[1,2-a]imidazole]-6′-one] | 0.596 |
